How the values were obtained:
[1] = target: T1, ERBB2-A775_G776insYVMA (ERBB2YVMA) (Homo sapiens, UniProt P04626, INS775YVMA); experiment: HotSpot radiometric kinase activity assay, ERBB2YVMA; details: biochemical activity, 20 nM ERBB2YVMA, 10 μM 33P-ATP, 2 hours, read-out: HER2 - YVMA IC50
T1 construct: purchased SignalChem E27-13BG
Description: (§1) The purpose of the wtERBB2, ERBB2-A775_G776insYVMA (ERBB2YVMA), wtEGFR biochemical assay was to evaluate the inhibition (% inhibition and IC50 values) of the small molecule inhibitors by using the “HotSpot” radiometric kinase activity assay. HotSpot assays monitor the production of kinase substrate by the radioactive gamma phosphate of adenosine triphosphate (33P-ATP) during biochemical reactions. HotSpot assays was performed in steps upon completion of the kinase reaction: deposition of a reaction mixture aliquot onto P81 ion exchange paper, extensive washing of the aforementioned P81 paper using phosphoric acid to remove unbound radiolabeled 33P-ATP from the P81 paper, and finally visualization and quantification of the dried P81 paper utilizing a phosphoimager. […] Typical reaction solutions (10 μL, final reaction volume) contained the following buffer conditions: 20 mM Hepes (pH 7.5), 10 mM MgCl2, 1 mM EGTA, 0.01% Brij35, 0.02 mg/mL BSA, 0.1 mM Na3VO4, 2 mM DTT, 1% DMSO. The assay was primed by preparing a fresh 0.2 mg/mL solution of pEY (Sigma Cat: P7244) substrate in the reaction buffer and supplementing that solution with […] of MnCl2 as substrate cofactor (Sigma Cat: M9522). The kinase of interest was then added to the solution at the appropriate concentration (30 nM wtERBB2 from, or 20 nM ERBB2YVMA, or 4 nM wtEGFR) and gently mixed prior to delivery of compound in 100% DMSO by acoustic dispensing (Beckman Echo550). Compound, Kinase, and substrate were allowed to incubate for 20 min at room temperature prior to the initiation of the reaction by addition of 33P-ATP (PerkinElmer Cat: NEG602, final conc 10 μM). […] IC50 determinations were made from a plot of kinase activity as a function of inhibitor concentration fit to the 4-parameter IC50 equation with the enzyme concentration held constant using GraphPad Prism (San Diego).

wtERBB2 (Her2 WT) = target: T2, wtERBB2 (Her2 WT) (Homo sapiens, UniProt P04626); experiment: HotSpot radiometric kinase activity assay, wtERBB2; details: biochemical activity, 30 nM wtERBB2, 10 μM 33P-ATP, 2 hours
T2 construct: purchased Reaction Biology Kin-21-497
T2 sequence (P04626 23-1255): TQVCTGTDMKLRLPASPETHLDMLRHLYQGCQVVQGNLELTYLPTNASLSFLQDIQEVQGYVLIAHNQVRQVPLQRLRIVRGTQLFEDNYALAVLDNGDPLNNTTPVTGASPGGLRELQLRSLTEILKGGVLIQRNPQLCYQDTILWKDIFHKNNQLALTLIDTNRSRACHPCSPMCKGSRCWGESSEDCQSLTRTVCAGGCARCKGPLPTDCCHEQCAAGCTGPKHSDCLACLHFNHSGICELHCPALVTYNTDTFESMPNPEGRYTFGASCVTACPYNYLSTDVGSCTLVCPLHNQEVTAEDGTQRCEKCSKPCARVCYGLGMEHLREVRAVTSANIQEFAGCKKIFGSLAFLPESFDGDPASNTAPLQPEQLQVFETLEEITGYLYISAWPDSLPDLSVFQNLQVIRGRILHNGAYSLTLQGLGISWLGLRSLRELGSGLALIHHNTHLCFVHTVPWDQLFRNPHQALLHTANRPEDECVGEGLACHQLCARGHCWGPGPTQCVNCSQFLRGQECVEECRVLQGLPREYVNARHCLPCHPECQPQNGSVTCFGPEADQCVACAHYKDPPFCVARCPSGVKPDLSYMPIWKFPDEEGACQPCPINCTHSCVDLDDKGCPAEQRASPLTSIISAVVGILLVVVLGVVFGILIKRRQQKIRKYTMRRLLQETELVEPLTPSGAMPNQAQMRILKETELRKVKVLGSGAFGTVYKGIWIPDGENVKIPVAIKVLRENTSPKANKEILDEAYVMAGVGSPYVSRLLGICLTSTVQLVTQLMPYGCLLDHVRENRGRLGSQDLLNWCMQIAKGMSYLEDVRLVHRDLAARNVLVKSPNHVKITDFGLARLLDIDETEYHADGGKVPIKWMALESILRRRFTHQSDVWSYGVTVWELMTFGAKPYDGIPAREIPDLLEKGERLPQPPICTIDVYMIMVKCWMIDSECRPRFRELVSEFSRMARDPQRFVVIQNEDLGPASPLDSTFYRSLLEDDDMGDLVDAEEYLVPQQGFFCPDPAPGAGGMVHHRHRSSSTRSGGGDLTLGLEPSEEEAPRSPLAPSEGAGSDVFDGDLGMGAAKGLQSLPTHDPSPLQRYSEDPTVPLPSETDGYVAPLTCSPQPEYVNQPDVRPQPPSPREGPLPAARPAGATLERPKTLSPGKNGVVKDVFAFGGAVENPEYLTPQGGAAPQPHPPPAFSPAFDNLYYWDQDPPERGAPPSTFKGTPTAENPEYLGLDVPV
Description: as §1

BaF3_HER2WT cells = BaF3_HER2WT cells (Homo sapiens, UniProt P04626); experiment: Cell growth inhibition assay (CellTiterGlo), BaF3_HER2WT; type: cell-based; details: 3-day treatment, CellTiterGlo, read-out: Cell growth inhibition activity, HER2 WT
BaF3_HER2WT cells, sequence (P04626 whole entry, change not shown): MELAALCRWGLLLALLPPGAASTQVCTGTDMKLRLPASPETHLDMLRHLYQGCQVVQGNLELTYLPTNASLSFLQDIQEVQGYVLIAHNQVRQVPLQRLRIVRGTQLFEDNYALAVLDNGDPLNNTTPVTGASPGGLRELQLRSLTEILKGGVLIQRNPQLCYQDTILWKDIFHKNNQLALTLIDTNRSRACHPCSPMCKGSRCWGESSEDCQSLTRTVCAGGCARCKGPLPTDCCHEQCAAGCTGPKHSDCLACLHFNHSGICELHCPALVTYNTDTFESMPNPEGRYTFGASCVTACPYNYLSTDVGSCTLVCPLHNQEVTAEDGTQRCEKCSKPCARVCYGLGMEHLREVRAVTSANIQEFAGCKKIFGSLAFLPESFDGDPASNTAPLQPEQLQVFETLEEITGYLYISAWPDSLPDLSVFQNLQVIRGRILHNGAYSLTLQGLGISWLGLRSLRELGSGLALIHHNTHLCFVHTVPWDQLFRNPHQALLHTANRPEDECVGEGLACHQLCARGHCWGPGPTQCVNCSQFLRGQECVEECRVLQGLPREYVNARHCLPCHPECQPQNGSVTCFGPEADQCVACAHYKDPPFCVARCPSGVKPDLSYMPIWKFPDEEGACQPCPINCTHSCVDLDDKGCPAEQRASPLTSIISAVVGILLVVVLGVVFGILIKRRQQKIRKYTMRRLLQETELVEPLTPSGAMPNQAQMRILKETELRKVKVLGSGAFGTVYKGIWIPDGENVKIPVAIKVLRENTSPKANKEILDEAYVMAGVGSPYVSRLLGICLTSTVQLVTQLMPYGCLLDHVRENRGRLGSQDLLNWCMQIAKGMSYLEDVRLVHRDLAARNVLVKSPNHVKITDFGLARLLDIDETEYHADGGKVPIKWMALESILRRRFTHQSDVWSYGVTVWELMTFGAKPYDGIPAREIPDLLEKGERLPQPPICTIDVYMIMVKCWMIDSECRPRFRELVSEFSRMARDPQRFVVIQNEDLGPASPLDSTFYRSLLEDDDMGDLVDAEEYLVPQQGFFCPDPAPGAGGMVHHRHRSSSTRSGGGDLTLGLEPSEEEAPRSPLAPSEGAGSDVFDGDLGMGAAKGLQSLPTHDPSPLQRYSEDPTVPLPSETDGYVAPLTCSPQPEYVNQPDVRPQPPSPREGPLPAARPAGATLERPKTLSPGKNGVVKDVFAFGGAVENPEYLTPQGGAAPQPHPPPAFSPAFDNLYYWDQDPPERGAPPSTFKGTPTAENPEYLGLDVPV

wtEGFR = target: T3, wtEGFR (Homo sapiens, UniProt P00533); experiment: HotSpot radiometric kinase activity assay, wtEGFR; details: biochemical activity, 4 nM wtEGFR, 10 μM 33P-ATP, 2 hours, read-out: EGFR WT IC50
T3 construct: purchased Invitrogen PR7295B
Description: as §1

BaF3_EGFRWT cells = BaF3_EGFRWT cells (Homo sapiens, UniProt P00533); experiment: Cell growth inhibition assay (CellTiterGlo), BaF3_EGFRWT; type: cell-based; details: 3-day treatment, CellTiterGlo, read-out: Cell growth inhibition activity, EGFR WT
BaF3_HER2YVMA cells = BaF3_HER2YVMA cells (Homo sapiens, UniProt P04626, DUP772-775, cells depend on it); experiment: Cell growth inhibition assay (CellTiterGlo), BaF3_HER2YVMA; type: cell-based; details: 3-day treatment, CellTiterGlo, read-out: Cell growth inhibition activity, HER2 - YVMA
BaF3_HER2YVMA cells, sequence (P04626 with tags, fused parts or gaps DUP772-775): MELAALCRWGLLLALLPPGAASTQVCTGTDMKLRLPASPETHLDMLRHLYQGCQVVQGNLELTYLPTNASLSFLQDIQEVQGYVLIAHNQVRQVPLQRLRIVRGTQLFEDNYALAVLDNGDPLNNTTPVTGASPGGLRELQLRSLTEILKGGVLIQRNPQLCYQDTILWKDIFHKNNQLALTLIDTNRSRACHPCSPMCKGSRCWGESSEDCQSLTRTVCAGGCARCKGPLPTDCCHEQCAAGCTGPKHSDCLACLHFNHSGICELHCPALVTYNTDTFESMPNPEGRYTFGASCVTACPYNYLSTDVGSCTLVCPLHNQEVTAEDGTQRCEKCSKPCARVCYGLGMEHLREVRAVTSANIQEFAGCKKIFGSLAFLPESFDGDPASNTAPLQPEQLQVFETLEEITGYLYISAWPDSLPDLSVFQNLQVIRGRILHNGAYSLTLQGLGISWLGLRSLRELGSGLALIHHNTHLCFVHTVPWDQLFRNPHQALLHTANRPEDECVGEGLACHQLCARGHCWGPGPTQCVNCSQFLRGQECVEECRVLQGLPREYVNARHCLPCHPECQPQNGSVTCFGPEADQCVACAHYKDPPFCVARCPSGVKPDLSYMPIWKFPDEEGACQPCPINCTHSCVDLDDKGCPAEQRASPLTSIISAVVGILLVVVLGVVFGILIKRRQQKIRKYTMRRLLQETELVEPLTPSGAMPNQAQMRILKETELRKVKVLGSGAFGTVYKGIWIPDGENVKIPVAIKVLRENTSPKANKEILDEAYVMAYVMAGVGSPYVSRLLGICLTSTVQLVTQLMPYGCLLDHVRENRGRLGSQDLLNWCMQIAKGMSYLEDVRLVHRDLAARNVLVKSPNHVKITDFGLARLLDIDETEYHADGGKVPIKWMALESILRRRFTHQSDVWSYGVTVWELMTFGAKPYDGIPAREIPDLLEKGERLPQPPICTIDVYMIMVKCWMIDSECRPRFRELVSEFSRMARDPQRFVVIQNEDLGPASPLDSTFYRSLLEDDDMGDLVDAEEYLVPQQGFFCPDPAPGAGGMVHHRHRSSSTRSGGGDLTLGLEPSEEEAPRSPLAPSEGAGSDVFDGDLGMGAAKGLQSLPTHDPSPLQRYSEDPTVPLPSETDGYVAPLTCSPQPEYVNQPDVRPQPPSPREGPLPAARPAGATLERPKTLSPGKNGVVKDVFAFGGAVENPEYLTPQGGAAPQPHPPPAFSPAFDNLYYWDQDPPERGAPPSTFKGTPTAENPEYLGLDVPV

T1 sequence (P04626 with tags, fused parts or gaps INS775YVMA limits assumed): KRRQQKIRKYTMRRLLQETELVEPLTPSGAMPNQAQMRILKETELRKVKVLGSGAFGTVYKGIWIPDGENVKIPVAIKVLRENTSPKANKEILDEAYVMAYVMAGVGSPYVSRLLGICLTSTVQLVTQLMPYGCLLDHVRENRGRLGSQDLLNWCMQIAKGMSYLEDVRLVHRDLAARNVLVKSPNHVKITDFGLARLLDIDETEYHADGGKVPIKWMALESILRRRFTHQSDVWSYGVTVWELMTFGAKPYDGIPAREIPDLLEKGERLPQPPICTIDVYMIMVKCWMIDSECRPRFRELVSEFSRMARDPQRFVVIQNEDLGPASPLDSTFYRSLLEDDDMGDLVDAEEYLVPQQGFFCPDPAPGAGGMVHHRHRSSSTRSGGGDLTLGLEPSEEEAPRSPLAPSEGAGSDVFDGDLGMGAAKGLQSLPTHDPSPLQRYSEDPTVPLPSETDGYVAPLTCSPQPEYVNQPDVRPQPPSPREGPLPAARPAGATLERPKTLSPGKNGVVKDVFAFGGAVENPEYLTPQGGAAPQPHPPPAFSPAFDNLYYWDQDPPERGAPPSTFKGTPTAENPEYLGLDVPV

Structure (SMILES): C=CC(=O)NC1CCN(C(=O)c2ccn3ncnc(Nc4ccc(Oc5ccn6ncnc6c5)c(C)c4)c23)C1 (stereo not shown) [Example 4, N-(1-(4-((4-([1,2,4]triazolo[1,5-a]pyridin-7-yloxy)-3-methylphenyl)amino)pyrrolo[2,1-f][1,2,4]triazine-5-carbonyl)pyrrolidin-3-yl)acrylamide]
- IC50 [1]: < 0.2 µM
- IC50 (wtERBB2 (Her2 WT)): < 0.2 µM
- GI50 (BaF3_HER2WT cells): < 0.2 µM
- IC50 (wtEGFR): 1.5 to 5 µM
- GI50 (BaF3_EGFRWT cells): 1.5 to 5 µM
- GI50 (BaF3_HER2YVMA cells): < 0.2 µM

Structure (SMILES): Cc1cc(Nc2c(C#N)cnn3ccc(C4CN(C(=O)/C=C/CN(C)C)C4)c23)ccc1Oc1ccn2ncnc2c1 [Example 86, (E)-4-((4-([1,2,4]triazolo[1,5-a]pyridin-7-yloxy)-3-methylphenyl)amino)-5-(1-(4-(dimethylamino)-but-2-enoyl)azetidin-3-yl)pyrrolo[1,2-b]pyridazine-3-carbonitrile]
- IC50 [1]: 1.5 to 5 µM
- IC50 (wtERBB2 (Her2 WT)): 1.5 to 5 µM
- GI50 (BaF3_HER2WT cells): 1.5 to 5 µM
- IC50 (wtEGFR): 1.5 to 5 µM
- GI50 (BaF3_EGFRWT cells): 1.5 to 5 µM
- GI50 (BaF3_HER2YVMA cells): > 5 µM

Structure (SMILES): Cc1cc(Nc2ncnn3cnc(C4CCN(C(=O)/C=C/CN(C)C)CC4)c23)ccc1Oc1ccn2ncnc2c1 [Example 88, (E)-1-(4-(4-((4-([1,2,4]triazolo[1,5-a]pyridin-7-yloxy)-3-methylphenyl)amino)imidazo[5,1-f][1,2,4]triazin-5-yl)piperidin-1-yl)-4-(dimethylamino)but-2-en-1-one]
- IC50 [1]: 0.5 to 1.5 µM
- IC50 (wtERBB2 (Her2 WT)): 0.2 to 0.5 µM
- GI50 (BaF3_HER2WT cells): 0.5 to 1.5 µM
- IC50 (wtEGFR): 1.5 to 5 µM
- GI50 (BaF3_EGFRWT cells): 1.5 to 5 µM
- GI50 (BaF3_HER2YVMA cells): 1.5 to 5 µM

Structure (SMILES): CN(C)C/C=C/C(=O)N1CC(c2ccn3ncnc(Nc4cnc(Oc5cccc(C(F)(F)F)c5)c(Cl)c4)c23)C1 [Example 90, (E)-1-(3-(4-((5-chloro-6-(3-(trifluoromethyl)phenoxy)pyridin-3-yl)amino)pyrrolo[2,1-f][1,2,4]triazin-5-yl)azetidin-1-yl)-4-(dimethylamino)but-2-en-1-one]
- IC50 [1]: 1.5 to 5 µM
- IC50 (wtERBB2 (Her2 WT)): 1.5 to 5 µM
- GI50 (BaF3_HER2WT cells): 1.5 to 5 µM
- IC50 (wtEGFR): 1.5 to 5 µM
- GI50 (BaF3_EGFRWT cells): 1.5 to 5 µM
- GI50 (BaF3_HER2YVMA cells): 1.5 to 5 µM

Structure (SMILES): Cc1cc(Nc2ncnn3ccc(N4CC5(CCN(C(=O)/C=C/CN(C)C)C5)C4)c23)ccc1Oc1ccn2ncnc2c1 [Example 156, (2E)-4-(dimethylamino)-1-(2-{4-[(3-methyl-4-{[1,2,4]triazolo[1,5-a]pyridin-7-yloxy}phenyl)amino]pyrrolo[2,1-f][1,2,4]triazin-5-yl}-2,6-diazaspiro[3.4]octan-6-yl)but-2-en-1-one]
- IC50 [1]: < 0.2 µM
- GI50 (BaF3_HER2WT cells): 0.2 to 0.5 µM
- IC50 (wtEGFR): 0.5 to 1.5 µM
- GI50 (BaF3_EGFRWT cells): 1.5 to 5 µM
- GI50 (BaF3_HER2YVMA cells): 1.5 to 5 µM

Structure (SMILES): Cc1cc(Nc2ncnn3ccc(C(=O)NCCCN(C)C)c23)ccc1Oc1ccn2ncnc2c1 [Example 178, 4-((4-([1,2,4]triazolo[1,5-a]pyridin-7-yloxy)-3-methylphenyl)amino)-N-(3-(dimethylamino)-propyl)pyrrolo[2,1-f][1,2,4]triazine-5-carboxamide]
- IC50 [1]: < 0.2 µM
- GI50 (BaF3_HER2WT cells): 0.2 to 0.5 µM
- IC50 (wtEGFR): 0.5 to 1.5 µM
- GI50 (BaF3_EGFRWT cells): > 5 µM
- GI50 (BaF3_HER2YVMA cells): 1.5 to 5 µM
